According to PMC9147192, “Small Molecule Arranged Thermal Proximity Coaggregation (smarTPCA)—A Novel Approach to Characterize Protein–Protein Interactions in Living Cells by Similar Isothermal Dose–Responses” (International Journal of Molecular Sciences, 2022):

How the values were obtained:
Test in all cases: TPP-CCR in living HL-60 cells
Format in all cases: cell-based
ANP32E = molecular target: T1, ANP32E (Homo sapiens, UniProt Q9BTT0)
T1 construct: dose–responses (mean over replicates), derived from TPP-CCR experiments in living cells; endogenous in cells; host or cells: HL-60 cells (ATCC No. CCL-240)

ENDOG = molecular target: T2, ENDOG (Homo sapiens, UniProt Q14249)
T2 construct: endogenous in cells; host or cells: HL-60 (ATCC CCL-240)
T2 sequence (Q14249 49-297): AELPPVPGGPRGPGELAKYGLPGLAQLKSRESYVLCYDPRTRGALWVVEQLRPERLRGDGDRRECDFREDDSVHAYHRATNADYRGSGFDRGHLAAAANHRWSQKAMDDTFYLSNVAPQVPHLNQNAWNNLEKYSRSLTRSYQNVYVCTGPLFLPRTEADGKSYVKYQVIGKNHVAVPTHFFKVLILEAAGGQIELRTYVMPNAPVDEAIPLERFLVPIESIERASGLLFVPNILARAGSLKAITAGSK

POR = molecular target: T3, POR (Homo sapiens, UniProt P16435)
T3 construct: endogenous in cells; host or cells: HL-60 (ATCC CCL-240)
T3 sequence (P16435 1-677): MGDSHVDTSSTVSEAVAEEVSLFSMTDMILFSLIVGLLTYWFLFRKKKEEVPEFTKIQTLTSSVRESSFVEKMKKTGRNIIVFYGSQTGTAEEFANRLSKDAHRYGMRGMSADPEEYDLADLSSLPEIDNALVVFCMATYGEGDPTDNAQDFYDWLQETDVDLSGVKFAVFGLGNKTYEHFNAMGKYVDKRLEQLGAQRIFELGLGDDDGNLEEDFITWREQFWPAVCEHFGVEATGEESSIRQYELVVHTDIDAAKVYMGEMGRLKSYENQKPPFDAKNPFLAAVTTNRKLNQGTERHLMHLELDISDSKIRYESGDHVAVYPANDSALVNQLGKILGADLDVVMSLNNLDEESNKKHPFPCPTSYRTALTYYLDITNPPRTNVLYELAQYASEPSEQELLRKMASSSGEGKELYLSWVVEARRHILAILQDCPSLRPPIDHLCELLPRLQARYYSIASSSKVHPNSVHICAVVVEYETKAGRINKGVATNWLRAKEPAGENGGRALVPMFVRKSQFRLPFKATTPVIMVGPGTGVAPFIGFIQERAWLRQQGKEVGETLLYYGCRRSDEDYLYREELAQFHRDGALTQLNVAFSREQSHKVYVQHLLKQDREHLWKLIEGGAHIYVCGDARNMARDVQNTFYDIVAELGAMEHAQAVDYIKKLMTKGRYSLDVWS

UNC119B = molecular target: T4, UNC119B (Homo sapiens, UniProt A6NIH7)
T4 construct: endogenous in cells; host or cells: HL-60 (ATCC CCL-240)

[1] = living HL-60 cells, […] °C, TMT-MS

T4 sequence (A6NIH7 whole entry): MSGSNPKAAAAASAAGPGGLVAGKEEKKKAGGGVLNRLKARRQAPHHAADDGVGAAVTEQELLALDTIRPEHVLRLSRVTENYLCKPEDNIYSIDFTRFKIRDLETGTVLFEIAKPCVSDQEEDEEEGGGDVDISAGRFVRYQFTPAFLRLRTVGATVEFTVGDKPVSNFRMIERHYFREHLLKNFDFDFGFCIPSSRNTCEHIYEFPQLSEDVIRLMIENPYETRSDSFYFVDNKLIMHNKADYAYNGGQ
T1 sequence (Q9BTT0 whole entry): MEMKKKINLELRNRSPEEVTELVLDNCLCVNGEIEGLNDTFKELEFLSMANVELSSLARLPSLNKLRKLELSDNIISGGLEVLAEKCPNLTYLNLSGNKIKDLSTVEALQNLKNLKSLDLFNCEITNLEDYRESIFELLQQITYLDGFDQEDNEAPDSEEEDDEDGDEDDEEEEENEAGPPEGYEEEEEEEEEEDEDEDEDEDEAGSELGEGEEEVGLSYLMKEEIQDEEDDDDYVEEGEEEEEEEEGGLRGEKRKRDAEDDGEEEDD

In the case of Cc1cnc(Nc2ccc(F)cc2Cl)nc1-c1c[nH]c(C(=O)N[C@H](CO)c2cccc(Cl)c2)c1 [ERK 11e], the Hill slope (ANP32E; TPP-CCR, living cells, ANP32E) is reported as 0.58, the “Hill slope (ANP32E)” value (ANP32E; [1]) is reported as 0.58 and the EC50 (ANP32E; living HL-60 cells, […] °C, TMT-MS, read-out: pEC50 (ANP32E) (converted)) is reported as 166 nM. The Hill slope (ENDOG; TPP-CCR, living cells, ENDOG) was 0.40, the “Hill slope (ENDOG)” value (ENDOG; [1]) was 0.40 and the EC50 (ENDOG; living HL-60 cells, […] °C, TMT-MS, read-out: pEC50 (ENDOG) (converted)) was 2.75 nM. For the same compound, the Hill slope (POR; TPP-CCR, living cells, POR) was 0.73, the EC50 (POR; [1]) was 1290 nM and the “Hill slope (POR)” value (POR; [1]) was 0.73. The Hill slope (UNC119B; TPP-CCR, living cells, UNC119B) was 0.67, the “Hill slope (UNC119B)” value (UNC119B; [1]) was 0.67 and the EC50 (UNC119B; living HL-60 cells, […] °C, TMT-MS, read-out: pEC50 (UNC119B) (converted)) was 1050 nM.
